Data from ChEMBL document CHEMBL1151474, “Replication of Colonic Crohn's Disease Mucosal Escherichia coli Isolates within Macrophages and Their Susceptibility to Antibiotics” (Antimicrob Agents Chemother, 2008).
≈ marks a conversion by molar mass, not a printed value. Calls of active or inactive are those of the source. The calls are words filed in the database; no cut-off is given here.

What was measured:
Escherichia coli [1] = test: Antibacterial activity against mucosa-associated Escherichia coli isolates isolated from patients with Crohn's disease by disk diffusion method; format: functional
Escherichia coli [2] = test: Antibacterial activity against gentamicin-treated internalized Escherichia coli isolate HM605 in mouse J774A1 cells isolated from colonic mucosal biopsies of patient with Crohn's disease assessed as intracellular killing of bacteria at 18 ug/ml after 6 hrs; format: functional, organism-based; conditions: J774.A1
Escherichia coli [3] = test: Antibacterial activity against gentamicin-treated internalized Escherichia coli isolate HM605 in mouse J774A1 cells isolated from colonic mucosal biopsies of patient with Crohn's disease assessed as intracellular killing of bacteria at 18 ug/ml after 3 hrs; format: functional, organism-based; conditions: J774.A1
Escherichia coli [4] = test: Antibacterial activity against gentamicin-treated internalized Escherichia coli isolate HM605 in mouse J774A1 cells isolated from colonic mucosal biopsies of patient with Crohn's disease assessed as reduction in intracellular bacterial viability at 18 ug/ml after 24 hrs; format: functional, organism-based; conditions: J774.A1
Escherichia coli [5] = test: Antibacterial activity against gentamicin-treated internalized Escherichia coli isolate HM580 in mouse J774A1 cells isolated from colonic mucosal biopsies of patient with Crohn's disease assessed as intracellular killing of bacteria at 10% compound Cmax after 3 hrs; format: functional, J774.A1
Escherichia coli [6] = test: Antibacterial activity against Escherichia coli ATCC 25922 after 24 hrs by Etest antibiotic concentration gradient method; format: functional, organism-based
J774.A1 [7] = test: Cytotoxicity against mouse J774A1 cells assessed as release of adenylate kinase at 100 ug/ml after 3 hrs […] relative to control; format: cell-based; conditions: j774.a1, 3 h
[8] = Cmax in immunodeficiency virus-infected patient at 800 mg, po by high-pressure liquid chromatography; conditions: human, in vivo
Escherichia coli [9] = test: Antibacterial activity against gentamicin-treated internalized Escherichia coli isolate HM605 in mouse J774A1 cells isolated from colonic mucosal biopsies of patient with Crohn's disease assessed as intracellular killing of bacteria at 10% compound Cmax after 3 hrs; format: functional, J774.A1
Escherichia coli [10] = test: Antibacterial activity against gentamicin-treated internalized Escherichia coli isolate HM615 in mouse J774A1 cells isolated from colonic mucosal biopsies of patient with Crohn's disease assessed as intracellular killing of bacteria at 10% compound Cmax after 3 hrs; format: functional, J774.A1
Escherichia coli [11] = test: Antibacterial activity against Escherichia coli isolate HM605 isolated from colonic mucosal biopsies of patient with Crohn's disease after 24 hrs by Etest antibiotic concentration gradient method; format: functional; conditions: isolate HM605, 24 h
Escherichia coli [12] = test: Antibacterial activity against gentamicin-treated internalized Escherichia coli isolate LF82 in mouse J774A1 cells isolated from chronic ileal lesions of patient with Crohn's disease assessed as intracellular killing of bacteria at 10% compound Cmax after 3 hrs; format: functional, J774.A1
Escherichia coli [13] = test: Antibacterial activity against gentamicin-treated internalized Escherichia coli isolate HM605 in mouse J774A1 cells isolated from colonic mucosal biopsies of patient with Crohn's disease assessed as intracellular killing of bacteria at 0.1 to 100 ug/ml after 6 hrs; format: functional, organism-based; conditions: J774.A1
Escherichia coli [14] = test: Antibacterial activity against extracellular Escherichia coli isolate HM605 isolated from colonic mucosal biopsies of patient with Crohn's disease assessed as colony count at 0.1 to 100 ug/ml after 3 hrs; format: functional, organism-based
Escherichia coli [15] = test: Antibacterial activity against extracellular Escherichia coli isolate HM605 isolated from colonic mucosal biopsies of patient with Crohn's disease at 0.1 to 100 ug/ml after 3 hrs; format: functional, organism-based
Escherichia coli [16] = test: Antibacterial activity against Escherichia coli isolate HM605 isolated from colonic mucosal biopsies of patient with Crohn's disease
Escherichia coli [17] = test: Antibacterial activity against gentamicin-treated internalized Escherichia coli isolate HM605 in mouse J774A1 cells isolated from colonic mucosal biopsies of patient with Crohn's disease assessed as intracellular killing of bacteria at 0.1 to 100 ug/ml after 3 hrs; format: functional, organism-based; conditions: J774.A1
[18] = Cmax in healthy human at 500 mg administered orally; format: ADME, organism-based; set-up: dose 500 mg, route oral; conditions: in vivo, po
Escherichia coli [19] = test: Antibacterial activity against extracellular Escherichia coli isolate HM605 isolated from colonic mucosal biopsies of patient with Crohn's disease at 0.01 to 10 ug/ml after 3 hrs; format: functional, organism-based
Escherichia coli [20] = test: Antibacterial activity against gentamicin-treated internalized Escherichia coli isolate HM605 in mouse J774A1 cells isolated from colonic mucosal biopsies of patient with Crohn's disease assessed as intracellular killing of bacteria at 0.1 to 100 ug/ml after 24 hrs; format: functional, organism-based; conditions: J774.A1
Escherichia coli [21] = test: Antibacterial activity against gentamicin-treated internalized Escherichia coli isolate HM605 isolated from colonic mucosal biopsies of patient with Crohn's disease in mouse J774A1 cells assessed as intracellular killing of bacteria at 3.2 ug/ml after 3 hrs; format: functional, J774.A1
Escherichia coli [22] = test: Antibacterial activity against Escherichia coli isolate HM605 isolated from colonic mucosal biopsies of patient with Crohn's disease assessed as killing of bacteria at 100 ug/ml; format: functional
Homo sapiens = species on record: Homo sapiens; test: Cmax in human; format: ADME, organism-based; conditions: in vivo
Escherichia coli [23] = test: Antibacterial activity against Escherichia coli isolate HM580 isolated from colonic mucosal biopsies of patient with Crohn's disease after 24 hrs by Etest antibiotic concentration gradient method; format: functional; conditions: isolate HM580, 24 h
Escherichia coli [24] = test: Antibacterial activity Escherichia coli isolate HM419 isolated from ileo-colonic mucosal biopsies of patient with Crohn's disease after 24 hrs by Etest antibiotic concentration gradient method; format: functional; conditions: isolate HM419, 24 h
Escherichia coli [25] = test: Antibacterial activity against Escherichia coli isolate HM95 isolated from ileal mucosal biopsies of patient with Crohn's disease after 24 hrs by Etest antibiotic concentration gradient method; format: functional; conditions: isolate HM95, 24 h
Escherichia coli [26] = test: Antibacterial activity against mucosa-associated Escherichia coli isolate HM456 isolated from patient with irritable bowel syndrome or sporadic polyps after 24 hrs by Etest antibiotic concentration gradient method; format: functional; conditions: isolate HM456, 24 h
Escherichia coli [27] = test: Antibacterial activity against Escherichia coli isolate HM154 isolated from colonic mucosal biopsies of patient with Crohn's disease after 24 hrs by Etest antibiotic concentration gradient method; format: functional; conditions: isolate HM154, 24 h
Escherichia coli [28] = test: Antibacterial activity against Escherichia coli isolate HM615 isolated from colonic mucosal biopsies of patient with Crohn's disease after 24 hrs by Etest antibiotic concentration gradient method; format: functional; conditions: isolate HM615, 24 h
Escherichia coli [29] = test: Antibacterial activity against mucosa-associated Escherichia coli isolate HM428 isolated from patient with irritable bowel syndrome or sporadic polyps after 24 hrs by Etest antibiotic concentration gradient method; format: functional; conditions: isolate HM428, 24 h
[30] = Cmax in healthy human at 160 mg administered orally; conditions: in vivo, po
Escherichia coli [31] = test: Antibacterial activity Escherichia coli isolate HM413 isolated from ileo-colonic mucosal biopsies of patient with Crohn's disease after 24 hrs by Etest antibiotic concentration gradient method; format: functional; conditions: isolate HM413, 24 h
J774.A1 [32] = test: Cytotoxicity against mouse J774A1 cells assessed as macrophage number at 1.7 ug/ml after 3 hrs by total cell protein assay; format: cell-based; conditions: j774.a1, 3 h
Escherichia coli [33] = test: Antibacterial activity against gentamicin-treated internalized Escherichia coli isolate HM605 isolated from colonic mucosal biopsies of patient with Crohn's disease in mouse J774A1 cells assessed as intracellular killing of bacteria at 1.7 ug/ml after 3 hrs; format: functional, J774.A1
[34] = Cmax in patient with Billroth-II gastrectomy at 250 mg, po; format: ADME, organism-based; set-up: dose 250 mg, route oral; conditions: human, in vivo

Molecule | Activity (Escherichia coli [1]) | Activity (Escherichia coli [5]) | Activity (Escherichia coli [6]) | Activity (J774.A1 [7]) | Activity (Escherichia coli [9]) | Activity (Escherichia coli [10]) | MIC (Escherichia coli [11]) | Activity (Escherichia coli [12]) | MBC (Escherichia coli [16]) | Activity (Escherichia coli [19]) | MIC (Escherichia coli [23]) | MIC (Escherichia coli [24]) | MIC (Escherichia coli [25]) | MIC (Escherichia coli [26]) | MIC (Escherichia coli [27]) | MIC (Escherichia coli [28]) | MIC (Escherichia coli [29]) | MIC (Escherichia coli [31]) | also measured
GENTAMICIN [listing 1 of 2 here] | 100% |  |  |  |  |  |  |  |  |  |  |  |  |  |  |  |  |  | Activity (Escherichia coli [2]): 0.3%; Activity (Escherichia coli [3]): 7.8%; Activity (Escherichia coli [4]): 54.8%
Cc1cc(NS(=O)(=O)c2ccc(N)cc2)no1 [SULFAMETHOXAZOLE] |  | 58.7% | Active | 90% | 39.8% | 71.5% | > 1020 µg/mL | 63.2% |  |  |  |  |  |  |  |  |  |  | Cmax [8]: 40000 ng/mL
CC1(C)S[C@@H]2[C@H](NC(=O)[C@H](N)c3ccccc3)C(=O)N2[C@H]1C(=O)O [AMPICILLIN] | 95% | 9.6% | Active | 90% | 20.4% | 13.8% | > 256 µg/mL | 10.9% | > 100 µg/mL | Active |  |  |  |  |  |  |  |  | Activity (Escherichia coli [13]): inactive; Activity (Escherichia coli [14]): Active; Activity (Escherichia coli [15]): Active; Activity (Escherichia coli [17]): inactive; Cmax [18]: 3200 ng/mL; Activity (Escherichia coli [20]): inactive; Activity (Escherichia coli [21]): 11.1%; Activity (Escherichia coli [22]): 99.8%
GENTAMICIN [listing 2 of 2 here] |  |  |  | 90% |  |  |  |  |  |  |  |  |  |  |  |  |  |  | Cmax (Homo sapiens): 18000 ng/mL
COc1cc(Cc2cnc(N)nc2N)cc(OC)c1OC [TRIMETHOPRIM] | 100% | 46.9% | Active | 90% | 49.1% | 61.7% | > 32 µg/mL | 50.2% | 100 µg/mL (≈ 344 µM) | Active | ≤ 4 µg/mL | ≤ 4 µg/mL | ≤ 4 µg/mL | ≤ 4 µg/mL | ≤ 4 µg/mL | ≤ 4 µg/mL | ≤ 4 µg/mL | ≤ 4 µg/mL | Cmax [30]: 2300 ng/mL
CN(C)[C@@H]1C(O)=C(C(N)=O)C(=O)[C@@]2(O)C(O)=C3C(=O)c4c(O)cccc4[C@@](C)(O)[C@H]3C[C@@H]12 [TETRACYCLINE] | 67% | 62.4% | Active | 90% | 44.8% | 69.6% | 2 µg/mL (≈ 4.5 µM) | 64.2% | 1 µg/mL (≈ 2.25 µM) | Active | ≤ 4 µg/mL | ≤ 4 µg/mL | ≤ 4 µg/mL | ≤ 4 µg/mL | ≤ 4 µg/mL | ≤ 4 µg/mL | ≤ 4 µg/mL | ≤ 4 µg/mL | Activity (J774.A1 [32]): 55.9; Activity (Escherichia coli [33]): 62.8%; Cmax [34]: 1700 ng/mL
